Experimental data from patent publication US10702568B2, “Compositions containing silymarin and sulfoalkyl ether cyclodextrin and methods of using the same” (UNIVERSITY OF KANSAS, priority 2015, dated 2020).
Converted amounts (≈) assume the structure as drawn.

Key:
[1] = Silymarin solubility in water, CAPTISOL® solution and γ-cyclodextrin solution (Example 2, HPLC); assay type: physicochemical; conditions: for solubility: water, thermodynamic from solid, Solubility (mg/ml) of components of silymarin
Procedure: The solutions were centrifuged for 10 min at 13K rpm. An aliquot of the supernatant was diluted 1:5 for Water, 1:25 for γ-Cyclodextrin and 1:100 for both 0.20 M CAPTISOL® and 0.20M HP-B-Cyclodextrin using MeOH as the diluent. The standard reference was prepared by dissolving silymarin in 10 mg/mL of DMSO and then diluted to 0.50 mg/mL using MeOH.
The change of the saturated solubility of the various components of silymarin in each of the four types of samples can be seen in FIG. 4.
The data shown in Table 6 is plotted in FIGS. 5 and 6. The change of the solubility of the various components of silymarin in each of the three samples can be seen in FIG. 5. The total mutual saturated solubility of all flavonolignan components can be seen in FIG. 6. […] The various components of silymarin also have increased solubility in the CAPTISOL® (0.2M) sample.

[2] = Solubility of silymarin components in water (Example 10, HPLC); assay type: physicochemical; conditions: for solubility: water
Procedure: (§1) Silymarin components including taxifolin, silydianin, silychristin, silybin A, silybin B, isosilybin A, and isosilybin B were tested for their solubility in water and also for their Log D value. The silymarin extract was obtained from Indena® (Indena Code: 9065110). The HPLC system consisted of Waters system equipped with performance PLUS inline degasser along dual λ absorbance detector set at 288 nm. The chromatographic separation of silymarin constituents was achieved on a Symmetry Shield RP18 column (150×4.6 mm, 5 μm); which was maintained at ambient room temperature conditions. The binary mobile phase system consisted of reservoir A (methanol: 10 mM ammonium acetate pH 5 [65:35 v/v]) and reservoir B (10 mM ammonium acetate, pH 5) were run as per gradient program (0-1.9 min: 25% A and 75% B; 2.0-14.9 min: 80% A and 20% B and 15-37.9 min: 80% A and 20% B and 38-40 min: 25% A and 75% B). The flow rate was 1 mL/min throughout the analytical run.

[3] = Log D of silymarin components (octanol/buffer, HPLC); assay type: physicochemical; conditions: pH 7.4
Procedure: as §1
To determine the Log D of silymarin components, the silymarin extract (2 mg) was dissolved in 100% DMSO and then used for the experiment. Different buffers between pH ranges of 1.0 to 12 were prepared by using universal buffer stock containing 25 mM hydrochloric acid, 25 mM citric acid, 25 mM phosphoric acid, 30 mM boric acid and 20 mM sodium chloride. About 45 mL of universal buffer was titrated with Sodium hydroxide (5M) to obtain desired pH. A 10 μL of silymarin stock solution was spiked into Eppendorf tube containing 500 μL each of a buffer and presaturated octanol. This mixture was vortexed for 5 minutes and kept for shaking at room temperature. After 16 h, the mixture was centrifuged at 10,000 RPM for 30 minutes. After centrifugation buffer and octanol phases were separated, both phases were diluted with acetonitrile (1:1) and subject to HPLC analysis for quantitation of individual components of silymarin. The Log D values of each compound at a pH was determined by Log D (pH)=Log [Organic (peak area)/Aqueous (peak area)].

[4] = Pharmacokinetic study in rat; assay type: in vivo; conditions: in vivo; for AUC(0-t): AUC(0-2 h) (ng · h/mL)
Procedure: The Silymarin-CAPTISOL® complex was administered to rat to test its pharmacokinetic properties.
On arrival rats were housed individually in cages at animal care facility in a temperature and humidity controlled room with a 12 h:12 h (light:dark) cycles. The rats were provided with free access to food and water for one week before using for experimental purpose. The 12 rats were equally divided into three groups—Group I: silymarin-CAPTISOL® complex with a CAPTISOL® concentration of 100 mM for oral administration; Group II: silymarin suspension (Control); and Group III: silymarin complex with a CAPTISOL® concentration of 100 mM for intravenous administration. The animals were fasted overnight with free access to water. On the day of experiment, the rat was removed from animal care facility and brought to the procedure lab. The animal was weighed and appropriate dosing volume was determined. For oral administration, rat's head was held in place by gently extending the head back and supporting the lower body. The gavage tube was placed in the mouth and advanced along the lower palate till the esophagus, and the silymarin was administered through the tube. For intravenous administration, the silymarin-CAPTISOL® complex was administered by slow bolus intravenous injection into the tail vein. Approximately 200 μL blood was drawn into heparin coated tubes at pre dose, 0.15, 0.5, 1, 2, 4, 8, 10 and 24 h for oral group II and for intravenous group III. The sampling time points were predose, 0.12, 0.25, 0.5, 1, 2, 4, 8 and 24 h through the jugular vein catheter. Plasma was harvested by centrifuging the blood at 4000 RPM for 5 min and stored frozen at −80±10° C. until analysis.
Stored plasma was thawed just before performing the silymarin components analysis. 200 μL of acetonitrile containing 0.1% of ammonia was added to 50 μL of plasma, and this mixture was vortexed for 5 min and centrifuged at 4° C. for 5 min at 10,000 RPM. After centrifugation, the supernatant was separated and injected into HPLC for analysis of silymarin constituents taxifolin, silydianin, silychristin, silybin A, silybin B, isosilybin A and isosilybin B.
The plasma concentration-time curves of silybin A, silybin B, isosilybin A, and isosilybin B in the Silymarin-CAPTISOL® sample of Group I and the control sample (silymarin suspension) are respectively shown in FIGS. 20A to 20D.

[5] = Silymarin saturated solubility with CAPTISOL® (Example 1, HPLC); conditions: for solubility: 25 °C, thermodynamic from solid, Solubility (mg/ml) of flavonolignan components of silymarin, saturated with excess silymarin
Procedure: CAPTISOL® was dissolved in water to form four solutions with a CAPTISOL® concentration of 0.05 mol/L, 0.1 mol/L, 0.2 mol/L, and 0.3 mol/L respectively. 12 mg of silymarin powder (Sigma Aldrich) was added to 1 mL of each of the four CAPTISOL® solutions on Day 1, another 12 mg Silymarin powder was added on Day 3, and 19-22 mg Silymarin powder was added on Day 7 to ensure that silymarin reached its maximum solubility in each solution. The solutions were stirred in a water bath at 25° C. The solutions were then centrifuged prior to sampling. The supernatant was diluted in MeOH in preparation for HPLC assay.
A reference standard was prepared by mixing silymarin with methanol to provide a methanol solution with a silymarin concentration of 0.1 mg/ml.
HPLC was used to measure the relative concentrations of the different components of silymarin in each sample solution following the method described in Kuki et al., (2012) Chromatogram 75:175-180. The relative concentration of each component of silymarin was measured by comparing the normalized peak area units with that of the standard reference measured by the UV data at 288 nm and assuming equivalent extinction coefficients for all components.
The relative molar amounts of the ten flavonolignan components of silymarin were calculated by dividing the normalized peak area of each component in a sample by the total normalized peak area of the sample.
The concentration of each flavonolignan component of silymarin was calculated from the peak areas in Tables 1a and 1b and the total concentration of silymarin (0.1 mg/ml) in the reference sample, assuming constant extinction coefficients for each component.

[6] = CAPTISOL® (0.2M) in water, saturated
[7] = MeOH standard (0.5 mg/ml), reference
[8] = γ-cyclodextrin (0.15M) (Cavamax) in water, saturated
[9] = γ-cyclodextrin (0.15M), saturated
[10] = 0.05 M CAPTISOL in water, aqueous with cosolvent or surfactant or cyclodextrin, CAPTISOL® (0.05M) in water
[11] = 0.1 M CAPTISOL in water, aqueous with cosolvent or surfactant or cyclodextrin, CAPTISOL® (0.1M) in water
[12] = 0.2 M CAPTISOL in water, aqueous with cosolvent or surfactant or cyclodextrin, CAPTISOL® (0.2M) in water
[13] = 0.3 M CAPTISOL in water, aqueous with cosolvent or surfactant or cyclodextrin, CAPTISOL® (0.3M) in water
[14] = CAPTISOL® (0.05M), saturated solubility
[15] = CAPTISOL® (0.1M), saturated solubility
[16] = CAPTISOL® (0.2M), saturated solubility
[17] = CAPTISOL® (0.3M), saturated solubility
[18] = H2O, saturated solubility, share of total normalized peak area
[19] = MeOH standard (0.1 mg/ml), reference, share of total normalized peak area

Row | solubility [1] [mg/mL] | AUC(0-2 h) ([4]; po) [µg·h/mL] | solubility [5, 10] [mg/mL] | solubility [5, 11] [mg/mL] | solubility [5, 12] [mg/mL] | solubility [5, 13] [mg/mL] | Percentages of flavonolignan components of silymarin in the sample [5, 14] [%] | Percentages of flavonolignan components of silymarin in the sample [5, 15] [%] | Percentages of flavonolignan components of silymarin in the sample [5, 16] [%] | Percentages of flavonolignan components of silymarin in the sample [5, 17] [%] | Percentages of flavonolignan components of silymarin in the sample [5, 18] [%] | Percentages of flavonolignan components of silymarin in the sample [5, 19] [%] | solubility ([5]; water, H2O) [mg/mL] | SMILES | other results
1 | – | – | – | – | – | – | – | – | – | – | – | – | – | COc1cc([C@H]2Oc3cc([C@H]4Oc5cc(O)cc(O)c5C(=O)[C@H]4O)ccc3O[C@@H]2CO)ccc1O (relative stereo) [2,3-cis-silybin A] | Solubility (mg/ml) of components of silymarin [1, 6]: 2.21 mg/mL; Percentages of components of silymarin flavonolignan in the sample ([1]; CAPTISOL® (0.2M), saturated): 3.47%; Percentages of components of silymarin flavonolignan in the sample ([1]; H2O, saturated): 1.88%; Solubility (mg/ml) of components of silymarin ([1]; H2O, saturated): 0.01 mg/mL; Solubility (mg/ml) of components of silymarin ([1]; MeOH standard (0.5 mg/ml silymarin, dissolved reference, not saturated)): 0.01 mg/mL; Percentages of components of silymarin flavonolignan in the sample [1, 7]: 1.54%; Solubility (mg/ml) of components of silymarin [1, 8]: 0.12 mg/mL; Percentages of components of silymarin flavonolignan in the sample [1, 9]: 1.56%
2 | 0.03 (≈ 0.0622 mM) | 0.271 | 2.23 (≈ 4.62 mM) | 3.8 (≈ 7.88 mM) | 6.37 (≈ 13.2 mM) | 7.33 (≈ 15.2 mM) | 9.55 | 9.86 | 9.64 | 10.22 | 3.15 | 25.35 | 0.02 (≈ 0.0415 mM) | COc1cc([C@H]2Oc3cc([C@H]4Oc5cc(O)cc(O)c5C(=O)[C@@H]4O)ccc3O[C@@H]2CO)ccc1O [Silybin A] | solubility [2]: 0.00771 mg/mL (≈ 0.016 mM); logD at 16 h [3]: 2.26; AUC(0-t) ([4]; iv): 3.45 µg·h/mL; Cmax ([4]; iv, Cmax (ng/mL)): 7.91 µg/mL; Tmax ([4]; iv, Tmax (h)): 7.2 min; % Fabs of silymarin-CAPTISOL® complex compared with silymarin alone ([4]; po): higher % Fabs; AUC of Silymarin-CAPTISOL® complex compared with the control sample ([4]; po): higher AUC; Cmax of Silymarin-CAPTISOL® complex compared with the control sample ([4]; po): higher Cmax; Tmax ([4]; po, Tmax (h)): 30 min; Percentages of flavonolignan components of silymarin in the sample ([5]; H2O, saturated solubility, share of total normalized peak area, listed as silybin A): about 3.15%
3 | – | – | – | – | – | – | – | – | – | – | – | – | – | COc1cc([C@@H]2Oc3cc([C@H]4Oc5cc(O)cc(O)c5C(=O)[C@H]4O)ccc3O[C@H]2CO)ccc1O (relative stereo) [2,3-cis-silybin B] | Solubility (mg/ml) of components of silymarin [1, 6]: 1.20 mg/mL; Percentages of components of silymarin flavonolignan in the sample ([1]; CAPTISOL® (0.2M), saturated): 1.89%; Percentages of components of silymarin flavonolignan in the sample ([1]; H2O, saturated): 0.75%; Solubility (mg/ml) of components of silymarin ([1]; H2O, saturated): 0.01 mg/mL; Percentages of components of silymarin flavonolignan in the sample [1, 7]: 0.99%; Solubility (mg/ml) of components of silymarin [1, 8]: 0.06 mg/mL; Percentages of components of silymarin flavonolignan in the sample [1, 9]: 0.74%
4 | – | 0.433 | – | – | – | – | – | – | – | – | – | – | – | COc1cc([C@@H]2Oc3ccc([C@H]4Oc5cc(O)cc(O)c5C(=O)[C@@H]4O)cc3O[C@H]2CO)ccc1O [Isosilybin B] | Solubility in water [2]: 0.00636 mg/mL (≈ 0.0132 mM); Log D (7.4 pH) [3]: 2.53; AUC(0-2 h) ([4]; iv): 1.417 µg·h/mL; Cmax ([4]; iv): 1.308 µg/mL; Tmax ([4]; iv): 7.2 min; % Fabs of silymarin-CAPTISOL® complex compared with silymarin alone ([4]; po): higher % Fabs; AUC of Silymarin-CAPTISOL® complex compared with the control sample ([4]; po): higher AUC; Cmax of Silymarin-CAPTISOL® complex compared with the control sample ([4]; po): higher Cmax; Tmax ([4]; po): 30 min
5 | 0.03 (≈ 0.0622 mM) | 0.395 | 5.59 (≈ 11.6 mM) | 8.93 (≈ 18.5 mM) | 13.8 (≈ 28.6 mM) | 15.8 (≈ 32.6 mM) | 24.01 | 23.18 | 20.90 | 21.96 | 7.72 | 32.00 | 0.05 (≈ 0.104 mM) | COc1cc([C@@H]2Oc3cc([C@H]4Oc5cc(O)cc(O)c5C(=O)[C@@H]4O)ccc3O[C@H]2CO)ccc1O [Silybin B] | solubility [2]: 0.0219 mg/mL (≈ 0.0454 mM); logD at 16 h [3]: 1.99; AUC(0-t) ([4]; iv): 5.07 µg·h/mL; Cmax ([4]; iv, Cmax (ng/mL)): 12.7 µg/mL; Tmax ([4]; iv, Tmax (h)): 7.2 min; Tmax ([4]; po): 37.8 min; Tmax ([4]; po, Tmax (h)): 30 min; Percentages of flavonolignan components of silymarin in the sample ([5]; H2O, saturated solubility, share of total normalized peak area, listed as silybin B): about 7.72%
6 | – | – | – | – | – | – | – | – | – | – | – | – | – | COc1cc([C@@H]2Oc3c(O)cc([C@H]4Oc5cc(O)cc(O)c5C(=O)[C@@H]4O)cc3[C@H]2CO)ccc1O [Silychristin] | Solubility in water [2]: 0.17 mg/mL (≈ 0.352 mM); Log D (7.4 pH) [3]: 0.53
7 | 0.06 (≈ 0.124 mM) | – | 0.93 (≈ 1.93 mM) | 1.15 (≈ 2.38 mM) | 2.32 (≈ 4.81 mM) | 2.5 (≈ 5.18 mM) | 3.98 | 2.99 | 3.51 | 3.48 | 5.21 | 1.50 | 0.04 (≈ 0.0829 mM) | COc1cc([C@H]2Oc3c(O)cc([C@H]4Oc5cc(O)cc(O)c5C(=O)[C@@H]4O)cc3[C@@H]2CO)ccc1O [Silychristin B] | –
8 | 0.44 (≈ 0.912 mM) | – | 9.57 (≈ 19.8 mM) | 15.3 (≈ 31.7 mM) | 25.5 (≈ 52.8 mM) | 26.9 (≈ 55.8 mM) | 41.07 | 39.70 | 38.52 | 37.52 | – | 22.28 | 0.46 (≈ 0.953 mM) | COc1cc([C@@H]2Oc3c(O)cc([C@H]4Oc5cc(O)cc(O)c5C(=O)[C@@H]4O)cc3[C@H]2CO)ccc1O [Silychristin A] | –
